One assay concerns CT-26 cells. The assay can be described thus: Protection of Balb/c mice by pre-immunisation with vaccine of foreign peptide-charged CT-26 colon carcinoma cells (prophylactic mouse model). It is filed as in vivo. To be noted: for animals protected: vaccinated twice s.c. 10^5 cells/mouse.
Another assay has as its system M-3 cells. Kind of assay: Comparative FACS analysis of M-3 cells treated with FITC-labelled foreign peptide by various methods. The format is cell-based, murine. (A flow cytometer gives signals particle by particle.)
A further assay concerns M-3 melanoma metastases. The assay can be described thus: Curing of DBA/2 mice having M-3 melanoma metastases with vaccine of foreign peptide-charged melanoma cells (therapeutic mouse model). It is filed as in vivo.
Assay [1] deals with highly tumorigenic variant of the M-3 cells. The format is in vivo, mice. Conditions: cells charged with peptide by means of TfpL/DNA complexes.

For “FFIGALEEI [Phe Phe Ile Gly Ala Leu Glu Glu Ile, synthetic peptide not hitherto found in nature, designed as ligand for MHC-I molecule of type H2-Kd]”, the “suitability of the peptide for producing an anti-tumour immunity” value in the assay on CT-26 cells (murine colon carcinoma CT-26, Balb/c) was “confirmed”. Besides, in the assay on CT-26 cells, the animals protected is reported as 4 out of 8.
Take “LFEAIEGFI [Leu Phe Glu Ala Ile Glu Gly Phe Ile, viral peptide derived from the influenza virus haemagglutinin, H2-K^d-ligand, used as foreign peptide to charge tumour cells]”: the “vaccinated mice able to eliminate a tumour challenge” value in the assay on CT-26 cells (irradiated CT-26 vaccine alienised with peptide complexed with TfpL or pL) is 75%. Besides, the animals protected in the assay on CT-26 cells was 6 out of 8. Besides, the “peptide binding to cells after washing step” value with M-3 cells (adjuvant mixing: 100 μg FITC-labelled peptide, 30 minutes ambient temperature, 10^6 M-3 cells) is given as “at most negligible”. Further, the “detection of cell-bound FITC peptide by fluorescent microscopy” value with M-3 cells (pulsing, cytocentrifuged M-3 cells) is “practically undetectable”. Besides, the shift in fluorescence result in the assay with M-3 cells (pulsing: incubation with 450 μg FITC peptide, 3 hours 37° C., M-3 cells) is listed as “one power of ten”. Further, the “shift in fluorescence compared with untreated cells or cells treated with polylysine alone” value in the assay with M-3 cells (transloading: 160 μg FITC-labelled peptide with TfpL/pL/DNA complex, 3 hours 37° C., M-3 cells) was ~2 powers of ten. Moreover, the animals cured with M-3 melanoma metastases (160 μg peptide charged onto M-3 cells by TfpL/DNA complexes, 5 day metastasis, 10^5 irradiated cells/animal s.c. twice) is 7 out of 8; with M-3 melanoma metastases (complexes containing 0.5 μg of peptide, five-day metastasis), 2 out of 8; with M-3 melanoma metastases (vaccine of cells treated with 4 mg peptide by incubation (pulsing, 3 hours 37° C.)), 1 out of 8. Further, the “degree of systemic immune response of the tumour vaccine” value with M-3 melanoma metastases (adjuvant mixing of the peptide with the irradiated vaccines) was “inefficient”; with M-3 melanoma metastases (peptide administered to the cells by polylysine/transferrin, compared with incubation with peptide for 24 hours (pulsing)) it was “significantly more marked”. For the same sequence, the mice cured with M-3 melanoma metastases (complexes containing 5 μg of peptide, five-day metastasis) is 4 out of 8; in the assay with M-3 melanoma metastases (complexes containing 50 μg of peptide, five-day metastasis), 6 out of 8. In the assay with M-3 melanoma metastases (mice with metastases vaccinated with xenopeptised irradiated M-3 cells (TfpL and empty vector)), the “mice able to eliminate the metastases” value came to 87.5%. For the same sequence, in the assay on M-3 melanoma metastases (vaccine with 400 μg peptide applied by incubation (pulsing, 3 hours 37° C.)), the “animals remained free from tumours” value is 3 out of the 8.
With “LPEAIEGFG [Leu Pro Glu Ala Ile Glu Gly Phe Gly, control peptide, anchor amino acids at positions 2 and 9 replaced by proline and glycine, reference compound]”, the animals developed tumours in assay [1] was 7 out of 8.

The values above are taken from patent US20020085997A1, “TUMOUR VACCINE AND PROCESS FOR THE PREPARATION THEREOF” (priority 1995, published 2002).
